Values joined by “and” are separate entries in the source; they are usually repeats but may differ in a detail not shown here. Equal entries are not always repeated.
What was measured:
[1] = In vitro unbound fraction; type: in vitro ADME
CL34 = assay: CFA 10-14 day clonogenic assay; type: cell-based; conditions: Homo sapiens
2313287 = assay: CFA 10-14 day clonogenic assay; type: cell-based; conditions: Homo sapiens
EN = assay: CFA 10-14 day clonogenic assay; type: cell-based; conditions: Homo sapiens
1119-HX xenograft = assay: MSI xenograft model efficacy; type: in vivo, mouse; conditions: colorectal carcinoma, 60 or 120 mg/kg
Experimental: (§1) All animal studies were conducted in accordance with ethics and procedures covered by permit BS-2275 and BS-1975 issued by the Kantonales Veterinäramt Basel-Stadt and in strict adherence to guidelines of the Eidgenössisches Tierschutzgesetz and the Eidgenössische Tierschutzverordnung, Switzerland. All animal studies were approved by the internal ethics committee. All animals had access to food and water ad libitum and were identified with transponders. They were housed in a specific-pathogen-free facility in IVC racks under a 12 h–12 h light–dark cycle. To establish cell-line-derived xenograft models, 6–7-week-old female athymic nude (Crl:NU(NCr)-Foxn1^nu) or SCID-BEIGE (CB17.Cg-PrkdcscidLystbg-J/Crl) mice from Charles River were engrafted subcutaneously with 5 million tumour cells in HBSS (H6648, Sigma-Aldrich). For SNU-407, Lovo, IM95, RL95.2, Ishikawa and IGROV-1, the cells were concentrated in 50% Matrigel (354234, Corning). Patient-derived xenografts were induced and expanded by transplantation as previously described. […] For the efficacy experiment, mice were randomized into groups (n = 5–6) for a mean tumour size of 100–150 mm^3. […] Blood samples were collected on day 7 and 91. […] Tumour responses are reported with the measures of tumour volumes from the treatment start. […] Animals were randomized (n = 3) and tumour samples were collected at 0, 1, 4, 8 and 24 h on the first day and then collected 4 h after the last treatment on day 3, 8, 10, 14 (including a 24 h timepoint), 17 and 21. Tumours were excised, weighed, either frozen in liquid nitrogen and cryogenic dry pulverized with the CryoPrep system (model CP-02, Covaris) or processed to FFPE after fixation. […] On day 12, blood samples were collected for PK analysis. On the last day (3 h after the last treatment), tumours were excised, weighed, frozen in liquid nitrogen and cryogenic dry pulverized for PD analysis.

5441-HX xenograft = assay: MSI xenograft model efficacy; type: in vivo, mouse; conditions: colorectal carcinoma, 60 or 120 mg/kg
Experimental: as §1

5495-HX xenograft = assay: MSI xenograft model efficacy; type: in vivo, mouse; conditions: colorectal carcinoma, 60 or 120 mg/kg
Experimental: as §1

HCT116 TP53 WT xenograft = assay: MSI xenograft model efficacy; type: in vivo, mouse; conditions: for Mean TVol / Tumour volume (TVol): HCT116 WT, 60 mpk; for Tumour volume (TVol): single mouse, 60 mg/kg
Experimental: as §1

HEC6 xenograft = assay: MSI xenograft model efficacy; type: in vivo, mouse; conditions: HEC6, Endometrial carcinoma; 60 or 120 mg/kg
Experimental: as §1

IGROV1 xenograft = assay: MSI xenograft model efficacy; type: in vivo, mouse; conditions: IGROV1, Ovarian carcinoma; 60 or 120 mg/kg
Experimental: as §1

LIM2405 xenograft = assay: MSI xenograft model efficacy; type: in vivo, mouse; conditions: LIM2405, colorectal carcinoma; 60 or 120 mg/kg
Experimental: as §1

LoVo xenograft = assay: MSI xenograft model efficacy; type: in vivo, mouse; conditions: colorectal carcinoma, 60 or 120 mg/kg
Experimental: as §1

OVK18 xenograft = assay: MSI xenograft model efficacy; type: in vivo, mouse; conditions: OVK18, Ovarian carcinoma; 60 or 120 mg/kg
Experimental: as §1

RKO xenograft = assay: MSI xenograft model efficacy; type: in vivo, mouse; conditions: colorectal carcinoma, 60 or 120 mg/kg
Experimental: as §1

RL95.2 xenograft = assay: MSI xenograft model efficacy; type: in vivo, mouse; conditions: RL95.2, Endometrial carcinoma; 60 or 120 mg/kg
Experimental: as §1

SNUC4 = assay: 4 day proliferation assay (CellTiter-Glo); conditions: Homo sapiens, SNU-C4, 96 h, read-out: 4 day assay GI50
Ishikawa = assay: 4 day proliferation assay (CellTiter-Glo); conditions: Homo sapiens, 96 h, read-out: 4 day assay GI50
HEC108 = assay: 4 day proliferation assay (CellTiter-Glo); conditions: Homo sapiens, 96 h, read-out: 4 day assay GI50
LS180 = assay: 4 day proliferation assay (CellTiter-Glo); conditions: Homo sapiens, LS180, 96 h, read-out: 4 day assay GI50
HEC59 = assay: 4 day proliferation assay (CellTiter-Glo); conditions: Homo sapiens, 96 h, read-out: 4 day assay GI50
HEC1A = assay: 4 day proliferation assay (CellTiter-Glo); conditions: Homo sapiens, HEC-1-A, 96 h, read-out: 4 day assay GI50
HEC251 = assay: 4 day proliferation assay (CellTiter-Glo); conditions: Homo sapiens, HEC-251, 96 h, read-out: 4 day assay GI50
LS513 = assay: 4 day proliferation assay (CellTiter-Glo); conditions: Homo sapiens, LS-513, 96 h, read-out: 4 day assay GI50

CCc1c(N2CCN(C(=O)c3ncnc(C)c3O)CC2)c(=O)n2nc(C3=CCOCC3)nc2n1CC(=O)Nc1ccc(C(F)(F)F)cc1Cl [HRO761]
fraction unbound [1]: 0.37 | GI50 (CL34): 39 nM | GI50 2313287: 2080 nM | GI50 (EN): ≥ 10000 nM | Best average response (1119-HX xenograft): -14 | Best average response (5441-HX xenograft): 7 | Best average response (5495-HX xenograft): -50 | Best average response (HCT116 TP53 WT xenograft; HCT116 P53 WT, colorectal carcinoma, 60 or 120 mg/kg): -60 | Mean TVol (HCT116 TP53 WT xenograft; day 0): 219.01 mm3 | Tumour volume (TVol) (HCT116 TP53 WT xenograft; day 0 post 1st dose): 93.52 mm3 and 234.39 mm3 and 157.76 mm3 and 320.89 mm3 and 161.54 mm3 and 345.97 mm3 | Mean TVol (HCT116 TP53 WT xenograft; day 3): 281.33 mm3 | Tumour volume (TVol) (HCT116 TP53 WT xenograft; day 3): 104.72 mm3 and 379.81 mm3 and 232.95 mm3 and 368.27 mm3 and 173.78 mm3 and 428.47 mm3 | Mean TVol (HCT116 TP53 WT xenograft; day 7): 242.31 mm3 | Tumour volume (TVol) (HCT116 TP53 WT xenograft; day 7): 103.44 mm3 and 369.23 mm3 and 158.31 mm3 and 312.72 mm3 | Mean TVol (HCT116 TP53 WT xenograft; day 10): 237.77 mm3 | Mean TVol (HCT116 TP53 WT xenograft; day 14): 208.41 mm3 | Tumour volume (TVol) (HCT116 TP53 WT xenograft; day 14): 70.08 mm3 and 324.15 mm3 and 133.86 mm3 and 295.48 mm3 and 98.69 mm3 and 328.18 mm3 | Mean TVol (HCT116 TP53 WT xenograft; day 17): 206.85 mm3 | Tumour volume (TVol) (HCT116 TP53 WT xenograft; day 17): 71.54 mm3 and 333.55 mm3 and 123.78 mm3 and 277.24 mm3 and 67.49 mm3 and 367.52 mm3 | Mean TVol (HCT116 TP53 WT xenograft; day 21): 182.16 mm3 | Tumour volume (TVol) (HCT116 TP53 WT xenograft; day 21): 68.28 mm3 and 318.05 mm3 and 133.60 mm3 and 239.83 mm3 and 55.74 mm3 and 277.43 mm3 | Mean TVol (HCT116 TP53 WT xenograft; day 24): 152.12 mm3 | Tumour volume (TVol) (HCT116 TP53 WT xenograft; day 24): 51.97 mm3 and 322.25 mm3 and 104.45 mm3 and 220.64 mm3 and 35.09 mm3 and 178.30 mm3 | Mean TVol (HCT116 TP53 WT xenograft; day 29): 108.49 mm3 | Tumour volume (TVol) (HCT116 TP53 WT xenograft; day 29): 53.97 mm3 and 224.74 mm3 and 66.70 mm3 and 182.17 mm3 and 28.07 mm3 and 95.29 mm3 | Mean TVol (HCT116 TP53 WT xenograft; day 31): 115.60 mm3 | Tumour volume (TVol) (HCT116 TP53 WT xenograft; day 31): 67.20 mm3 and 248.87 mm3 and 79.67 mm3 and 165.88 mm3 and 35.96 mm3 and 96.04 mm3 | Mean TVol (HCT116 TP53 WT xenograft; day 35): 82.07 mm3 | Tumour volume (TVol) (HCT116 TP53 WT xenograft; day 35): 74.11 mm3 and 171.12 mm3 and 62.35 mm3 and 120.74 mm3 and 20.08 mm3 and 43.99 mm3 | Mean TVol (HCT116 TP53 WT xenograft; day 38): 85.39 mm3 | Tumour volume (TVol) (HCT116 TP53 WT xenograft; day 38): 95.75 mm3 and 187.18 mm3 and 54.75 mm3 and 135.21 mm3 and 15.88 mm3 and 23.55 mm3 | Mean TVol (HCT116 TP53 WT xenograft; day 42): 74.87 mm3 | Tumour volume (TVol) (HCT116 TP53 WT xenograft; day 42): 111.35 mm3 and 127.20 mm3 and 44.64 mm3 and 140.38 mm3 and 12.27 mm3 and 13.40 mm3 | Mean TVol (HCT116 TP53 WT xenograft; day 45): 100.30 mm3 | Tumour volume (TVol) (HCT116 TP53 WT xenograft; day 45): 197.14 mm3 and 123.97 mm3 and 48.50 mm3 and 218.58 mm3 and 10.09 mm3 and 3.53 mm3 | Mean TVol (HCT116 TP53 WT xenograft; day 49): 121.82 mm3 | Tumour volume (TVol) (HCT116 TP53 WT xenograft; day 49): 316.70 mm3 and 100.63 mm3 and 72.22 mm3 and 229.46 mm3 and 10.59 mm3 and 1.31 mm3 | Mean TVol (HCT116 TP53 WT xenograft; day 53): 194.25 mm3 | Tumour volume (TVol) (HCT116 TP53 WT xenograft; day 53): 483.74 mm3 and 180.66 mm3 and 93.29 mm3 and 393.80 mm3 and 13.76 mm3 and 0.25 mm3 | Mean TVol (HCT116 TP53 WT xenograft; day 56): 269.54 mm3 | Tumour volume (TVol) (HCT116 TP53 WT xenograft; day 56): 671.24 mm3 and 160.85 mm3 and 148.76 mm3 and 618.00 mm3 and 18.36 mm3 and 0.00 mm3 | Mean TVol (HCT116 TP53 WT xenograft; day 60): 408.84 mm3 | Tumour volume (TVol) (HCT116 TP53 WT xenograft; day 60): 1070.44 mm3 and 236.23 mm3 and 249.04 mm3 and 872.91 mm3 and 24.42 mm3 and 0.00 mm3 | Best average response (HEC6 xenograft): -75 | Best average response (IGROV1 xenograft): -38 | Best average response (LIM2405 xenograft): 44 | Best average response (LoVo xenograft): -20 | Best average response (OVK18 xenograft): 500 | Best average response (RKO xenograft): 300 | Best average response (RL95.2 xenograft): -66 | GI50 (SNUC4): 145 nM | GI50 (Ishikawa): 228 nM | GI50 (HEC108): 1460 nM | GI50 (LS180): 3500 nM | GI50 (HEC59): ≥ 10000 nM | GI50 (HEC1A): ≥ 10000 nM | GI50 (HEC251): ≥ 10000 nM | GI50 (LS513): ≥ 10000 nM

— paper PMC11078746 (Nature, 2024)
